For assay [1], the system named is HCT 116 p53+/+. Put plainly: In vitro combination, HCS cell count assay (CI50). To be noted: HCT 116 p53+/+ and p53−/−; dependent on ratios or p53 status. In kind it is cell-based, human. As to the method: A combination index compares the concentration of compounds dosed in combination required for a given fractional effect to the concentration of single agent compound required to give the same fractional affect. In this application, the fractional effect is EC50.
The equation above represents the theoretical additive response for two mutually exclusive drugs, and takes into consideration the ratio at which the two compounds are dosed. […].
[…]. High content cell imaging and a cell proliferation assay were used to measure the anti-proliferative effects of the compounds.
HCT 116 cells transfected with p53 RNAi or a control vector were cultured in DMEM, 10% FBS, and 1× antibiotic/antimycotic. Cells were plated in growth medium in black/clear Falcon® 384-well plates. Cells were treated to assess the effects of p53 status, drug dose ratios, and dose schedules. […]. […] All procedures were performed by a Tecan robotic platform.
After overnight growth, cells were treated with compound for a total of 72 hours and incubated at 37° C., 5% CO2. Cells were fixed in 4% formaldehyde and stained with 1:4000 dilution of 10 mg/mL Hoechst 33342. HCS images were captured and data analyzed using the Target Activation application, object count per field parameter, on the ArrayScan VTI instrument (Cellomics, Inc.).

Assay [2] concerns HCT 116 p53−/− (p53 RNAi). Put plainly: In vitro combination, HCS cell count assay (CI50). In kind it is cell-based, human. To be noted: p53−/− HCT 116 cells; high doses of vincristine.
Procedure: Cells were plated in growth medium in black/clear Falcon® 384-well plates. Cells were treated to assess the effects of p53 status, drug dose ratios, and dose schedules. […] All procedures were performed by a Tecan robotic platform.

As for `CC[C@]1(O)C[C@H]2CN(CCc3c([nH]c4ccccc34)[C@@](C(=O)OC)(c3cc4c(cc3OC)N(C=O)[C@H]3[C@@](O)(C(=O)OC)[C@H](OC(C)=O)[C@]5(CC)C=CCN6CC[C@]43[C@@H]65)C2)C1` [vincristine], in assay [1], the “interaction with Compound 1 in cell count assay” value is listed as “conditional synergies”. Moreover, in assay [2], the “interaction with Compound 1, co-dosed” value is listed as “Statistically significant synergy”.

The values above are taken from patent US20110293745A1, “AURORA KINASE INHIBITORS” (SUNESIS PHARMACEUTICALS, INC., priority 2008, published 2011).
